In ChEMBL document CHEMBL3046903, “Systemic action of novel neonicotinoid insecticide IPP-10 and its effect on the feeding behaviour of Rhopalosiphum padi on wheat” (2010):
In brackets after ≈: the same amount, converted by molar mass. Activity calls are given as the source filed them. No cut-off for these calls is given here.

Key:
Rhopalosiphum padi [1] = assay: Toxicity against Rhopalosiphum padi infested wheat plant assessed as mortality at 1000 mg/l applied to upper plant for 1 min followed by basipetal transportation for 24 hr measured 48 hr after removal of upper plant parts relative to control; format: functional
Rhopalosiphum padi [2] = assay: Contact toxicity against Rhopalosiphum padi infested wheat plant applied as spray measured after 24 hr; format: functional
Rhopalosiphum padi [3] = assay: Toxicity against Rhopalosiphum padi infested wheat plant assessed as mortality at 1000 mg/l applied to upper plant for 1 min followed by basipetal transportation for 48 hr measured 24 hr after removal of upper plant parts relative to control; format: functional
Rhopalosiphum padi [4] = assay: Toxicity against Rhopalosiphum padi infested wheat plant assessed as mortality at 1000 mg/l applied to upper plant for 1 min followed by basipetal transportation for 24 hr measured 24 hr after removal of upper plant parts relative to control; format: functional
Rhopalosiphum padi [5] = assay: Toxicity against Rhopalosiphum padi infested wheat plant assessed as mortality at 1000 mg/l applied to upper plant for 1 min followed by basipetal transportation for 48 hr measured 48 hr after removal of upper plant parts relative to control; format: functional
Rhopalosiphum padi [6] = assay: Insecticidal activity against adult Rhopalosiphum padi infested wheat plant assessed as reduction in occurrences of salivation into sieve elements at 2 mg/l applied to the roots for 6 hr by electrical penetration graphical analysis relative to control; format: functional, organism-based
Rhopalosiphum padi [7] = assay: Insecticidal activity against adult Rhopalosiphum padi infested wheat plant assessed as reduction in occurrences of phloem ingestion at 2 mg/l applied to the roots for 6 hr by electrical penetration graphical analysis relative to control; format: functional, organism-based
Rhopalosiphum padi [8] = assay: Toxicity against first-instar nymph of Rhopalosiphum padi assessed as time until reproductive maturity at 0.4 mg/l applied to roots (reference value: 6.6 +/- 0.52 days); format: functional
Rhopalosiphum padi [9] = assay: Insecticidal activity against adult Rhopalosiphum padi infested wheat plant assessed as bout duration of xylem ingestion at 2 mg/l applied to the roots for 6 hr by electrical penetration graphical analysis (reference value: 20.4 +/- 4.5 min); format: functional
Rhopalosiphum padi [10] = assay: Insecticidal activity against adult Rhopalosiphum padi infested wheat plant assessed as bout duration of phloem ingestion at 2 mg/l applied to the roots for 6 hr by electrical penetration graphical analysis (reference value: 277.2 +/- 30.8 min); format: functional
Rhopalosiphum padi [11] = assay: Insecticidal activity against adult Rhopalosiphum padi infested wheat plant assessed as total time of salivation into sieve elements at 2 mg/l applied to the roots for 6 hr by electrical penetration graphical analysis (reference value: 35.4 +/- 6.8 secs); format: functional
Rhopalosiphum padi [12] = assay: Insecticidal activity against adult Rhopalosiphum padi infested wheat plant assessed as total time of phloem ingestion at 0.4 mg/l applied to the roots for 6 hr by electrical penetration graphical analysis (reference value: 296.4 +/- 39.3 min); format: functional
Rhopalosiphum padi [13] = assay: Insecticidal activity against adult Rhopalosiphum padi infested wheat plant assessed as bout duration of phloem ingestion at 0.4 mg/l applied to the roots for 6 hr by electrical penetration graphical analysis (reference value: 277.2 +/- 30.8 min); format: functional
Rhopalosiphum padi [14] = assay: Insecticidal activity against adult Rhopalosiphum padi infested wheat plant assessed as reduction in occurrences of phloem ingestion at 0.4 mg/l applied to the roots for 6 hr by electrical penetration graphical analysis relative to control; format: functional, organism-based
Rhopalosiphum padi [15] = assay: Insecticidal activity against adult Rhopalosiphum padi infested wheat plant assessed as bout duration of salivation into sieve elements at 0.4 mg/l applied to the roots for 6 hr by electrical penetration graphical analysis (reference value: 32.4 +/- 3 secs); format: functional
Rhopalosiphum padi [16] = assay: Insecticidal activity against adult Rhopalosiphum padi infested wheat plant assessed as total time of xylem ingestion at 2 mg/l applied to the roots for 6 hr by electrical penetration graphical analysis (reference value: 23.1 +/- 4.5 min); format: functional
Rhopalosiphum padi [17] = assay: Toxicity against Rhopalosiphum padi infested wheat plant applied to the roots measured after 48 hr; format: functional
Rhopalosiphum padi [18] = assay: Insecticidal activity against adult Rhopalosiphum padi infested wheat plant assessed as time taken for first phloem activity occurrence at 0.4 mg/l applied to the roots for 6 hr by electrical penetration graphical analysis (reference value: 141.9 +/- 18.1 min); format: functional
Rhopalosiphum padi [19] = assay: Insecticidal activity against adult Rhopalosiphum padi infested wheat plant assessed as reduction in occurrences of salivation into sieve elements at 0.4 mg/l applied to the roots for 6 hr by electrical penetration graphical analysis relative to control; format: functional, organism-based
Rhopalosiphum padi [20] = assay: Insecticidal activity against adult Rhopalosiphum padi infested wheat plant assessed as time taken for first xylem ingestion occurrence at 0.4 mg/l applied to the roots for 6 hr by electrical penetration graphical analysis (reference value: 145.5 +/- 27.1 min); format: functional
Rhopalosiphum padi [21] = assay: Insecticidal activity against adult Rhopalosiphum padi infested wheat plant assessed as total time of xylem ingestion at 0.4 mg/l applied to the roots for 6 hr by electrical penetration graphical analysis (reference value: 23.1 +/- 4.5 min); format: functional
Rhopalosiphum padi [22] = assay: Toxicity against Rhopalosiphum padi infested wheat plant applied to the roots measured after 24 hr; format: functional
Rhopalosiphum padi [23] = assay: Insecticidal activity against adult Rhopalosiphum padi infested wheat plant assessed as frequency of phloem ingestion at 0.4 mg/l applied to the roots for 6 hr by electrical penetration graphical analysis (reference value: 2.85 +/- 0.18 Hz); format: functional
Rhopalosiphum padi [24] = assay: Insecticidal activity against adult Rhopalosiphum padi infested wheat plant assessed as total time of salivation into sieve elements at 0.4 mg/l applied to the roots for 6 hr by electrical penetration graphical analysis (reference value: 35.4 +/- 6.8 secs); format: functional
Rhopalosiphum padi [25] = assay: Insecticidal activity against adult Rhopalosiphum padi infested wheat plant assessed as bout duration of xylem ingestion at 0.4 mg/l applied to the roots for 6 hr by electrical penetration graphical analysis (reference value: 20.4 +/- 4.5 min); format: functional
Rhopalosiphum padi [26] = assay: Toxicity against first-instar nymph of Rhopalosiphum padi assessed as reduction in reproductive rate at 0.4 mg/l applied to roots measured after 16 days relative to control; format: functional, organism-based
Rhopalosiphum padi [27] = assay: Insecticidal activity against adult Rhopalosiphum padi infested wheat plant assessed as reduction in xylem ingestion at 2 mg/l applied to the roots for 6 hr by electrical penetration graphical analysis relative to control; format: functional, organism-based
Rhopalosiphum padi [28] = assay: Insecticidal activity against adult Rhopalosiphum padi infested wheat plant assessed as total time of phloem ingestion at 2 mg/l applied to the roots for 6 hr by electrical penetration graphical analysis (reference value: 296.4 +/- 39.3 min); format: functional
Rhopalosiphum padi [29] = assay: Insecticidal activity against adult Rhopalosiphum padi infested wheat plant assessed as frequency of xylem ingestion at 0.4 mg/l applied to the roots for 6 hr by electrical penetration graphical analysis (reference value: 8.2 +/- 0.3 Hz); format: functional
Rhopalosiphum padi [30] = assay: Insecticidal activity against adult Rhopalosiphum padi infested wheat plant assessed as reduction in xylem ingestion at 0.4 mg/l applied to the roots for 6 hr by electrical penetration graphical analysis relative to control; format: functional, organism-based
Rhopalosiphum padi [31] = assay: Insecticidal activity against adult Rhopalosiphum padi infested wheat plant assessed as bout duration of salivation into sieve elements at 2 mg/l applied to the roots for 6 hr by electrical penetration graphical analysis (reference value: 32.4 +/- 3 secs); format: functional
Rhopalosiphum padi [32] = assay: Toxicity against first-instar nymph of Rhopalosiphum padi assessed as reduction in weight at 0.4 mg/l applied to roots measured after 7 days relative to control; format: functional, organism-based

Work on `O=[N+]([O-])/N=C1\NCCN1Cc1ccc(Cl)nc1` [IMIDACLOPRID] yielded an Activity (Rhopalosiphum padi [1]) of 6.7%, an LC50 (Rhopalosiphum padi [2]) of 0.9 µg/mL (≈ 3.52 µM) and an Activity (Rhopalosiphum padi [3]) of 3.5%. It also gave an Activity (Rhopalosiphum padi [4]) of 3.1% and an Activity (Rhopalosiphum padi [5]) of 7.1%.
With `CC1CC(O)N2CCN(Cc3ccc(Cl)nc3)C2=C1[N+](=O)[O-]` (centres undefined) the Activity (Rhopalosiphum padi [1]) was 33.2%, the Activity (Rhopalosiphum padi [6]) was “Active” and the Activity (Rhopalosiphum padi [7]) was “Active”. It also gave a Time (Rhopalosiphum padi [8]) of 8.39 days, a Time (Rhopalosiphum padi [9]) of 0 min and a Time (Rhopalosiphum padi [10]) of 0 min. For the same compound, the Time (Rhopalosiphum padi [11]) was 0 s, the Time (Rhopalosiphum padi [12]) was 218.8 min and the Time (Rhopalosiphum padi [13]) was 206.8 min. The Activity (Rhopalosiphum padi [14]) was “inactive”, the Time (Rhopalosiphum padi [15]) was 59.5 s and the LC50 (Rhopalosiphum padi [2]) was 2.45 µg/mL (≈ 7.54 µM). For the same compound, the Time (Rhopalosiphum padi [16]) was 0 min, the LC15 (Rhopalosiphum padi [17]) was 0.09 µg/mL (≈ 0.277 µM) and the LC50 (Rhopalosiphum padi [17]; Rhopalosiphum padi, 48 h) was 2.4 µg/mL (≈ 7.39 µM). For the same compound, the Time (Rhopalosiphum padi [18]) was 139.8 min, the Activity (Rhopalosiphum padi [19]) was “inactive” and the Time (Rhopalosiphum padi [20]) was 141.5 min. The Time (Rhopalosiphum padi [21]) was 10.4 min, the LC15 (Rhopalosiphum padi [22]) was 0.4 µg/mL (≈ 1.23 µM) and the LC50 (Rhopalosiphum padi [22]; Rhopalosiphum padi, 24 h) was 23.4 µg/mL (≈ 72.1 µM). The Activity (Rhopalosiphum padi [3]) was 18.4%, the Activity (Rhopalosiphum padi [23]) was 1.96 Hz and the Activity (Rhopalosiphum padi [4]) was 14.3%. For the same compound, the Time (Rhopalosiphum padi [24]) was 64.3 s, the Time (Rhopalosiphum padi [25]) was 9.7 min and the Activity (Rhopalosiphum padi [26]) was “Active”. The Activity (Rhopalosiphum padi [27]) was “Active”, the Time (Rhopalosiphum padi [28]) was 0 min and the Activity (Rhopalosiphum padi [29]) was 7.03 Hz. The Activity (Rhopalosiphum padi [30]) was “inactive”, the Time (Rhopalosiphum padi [31]) was 0 s and the Activity (Rhopalosiphum padi [5]) was 59.9%. For the same compound, the Activity (Rhopalosiphum padi [32]) was “Active”.
